This assay deals with Monoclonal antibody (mAb). As to the kind of experiment: Binding affinity towards monoclonal antibody (MAb) using ELISA assay, activity expressed relative to WQMGHS=1.
In turn, `CSCC[C@@H](NC(=O)[C@H](CCC(N)=O)NC(=O)[C@H](N)Cc1c[nH]c2ccccc12)C(=O)NCC(=O)N[C@H](Cc1c[nH]cn1)C(=O)N[C@@H](CO)C(=O)O` showed a Relative activity of 1.16.

`CSCC[C@H](NC(=O)[C@H](CCC(N)=O)NC(=O)[C@H](N)Cc1c[nH]c2ccccc12)C(=O)NCC(=O)N[C@@H](Cc1c[nH]cn1)C(=O)N[C@@H](CO)C(=O)O` came in with a Relative activity of 1.33.

Take `CSCC[C@@H](NC(=O)[C@@H](CCC(N)=O)NC(=O)[C@H](N)Cc1c[nH]c2ccccc12)C(=O)NCC(=O)N[C@@H](Cc1c[nH]cn1)C(=O)N[C@@H](CO)C(=O)O`: the Relative activity turned out to be 1.89.

`CSCC[C@H](NC(=O)[C@H](CCC(N)=O)NC(=O)[C@@H](N)Cc1c[nH]c2ccccc12)C(=O)NCC(=O)N[C@@H](Cc1c[nH]cn1)C(=O)N[C@H](CO)C(=O)O` came in with a Relative activity of 0.64.

For `CSCC[C@@H](NC(=O)[C@@H](CCC(N)=O)NC(=O)[C@@H](N)Cc1c[nH]c2ccccc12)C(=O)NCC(=O)N[C@H](Cc1c[nH]cn1)C(=O)N[C@@H](CO)C(=O)O`, the Relative activity worked out at 1.58.

Take `CSCC[C@@H](NC(=O)[C@H](CCC(N)=O)NC(=O)[C@@H](N)Cc1c[nH]c2ccccc12)C(=O)NCC(=O)N[C@@H](Cc1c[nH]cn1)C(=O)N[C@@H](CO)C(=O)O`: the Relative activity came to 1.01.

`CSCC[C@H](NC(=O)[C@H](CCC(N)=O)NC(=O)[C@H](N)Cc1c[nH]c2ccccc12)C(=O)NCC(=O)N[C@H](Cc1c[nH]cn1)C(=O)N[C@H](CO)C(=O)O` registered a Relative activity of 1.

In turn, `CSCC[C@H](NC(=O)[C@@H](CCC(N)=O)NC(=O)[C@@H](N)Cc1c[nH]c2ccccc12)C(=O)NCC(=O)N[C@@H](Cc1c[nH]cn1)C(=O)N[C@H](CO)C(=O)O` returned a Relative activity of 0.86.

`CSCC[C@H](NC(=O)[C@H](CCC(N)=O)NC(=O)[C@@H](N)Cc1c[nH]c2ccccc12)C(=O)NCC(=O)N[C@H](Cc1c[nH]cn1)C(=O)N[C@H](CO)C(=O)O` came in with a Relative activity of 1.06.

The compound `CSCC[C@H](NC(=O)[C@@H](CCC(N)=O)NC(=O)[C@@H](N)Cc1c[nH]c2ccccc12)C(=O)NCC(=O)N[C@H](Cc1c[nH]cn1)C(=O)N[C@@H](CO)C(=O)O` yielded a Relative activity of 0.64.

As to `CSCC[C@@H](NC(=O)[C@@H](CCC(N)=O)NC(=O)[C@H](N)Cc1c[nH]c2ccccc12)C(=O)NCC(=O)N[C@H](Cc1c[nH]cn1)C(=O)N[C@@H](CO)C(=O)O`, the Relative activity is 0.9.

On to `CSCC[C@H](NC(=O)[C@H](CCC(N)=O)NC(=O)[C@H](N)Cc1c[nH]c2ccccc12)C(=O)NCC(=O)N[C@H](Cc1c[nH]cn1)C(=O)N[C@@H](CO)C(=O)O`, for which the Relative activity was 0.78.

In turn, `CSCC[C@@H](NC(=O)[C@@H](CCC(N)=O)NC(=O)[C@H](N)Cc1c[nH]c2ccccc12)C(=O)NCC(=O)N[C@H](Cc1c[nH]cn1)C(=O)N[C@H](CO)C(=O)O` returned a Relative activity of 0.44.

Compound `CSCC[C@H](NC(=O)[C@H](CCC(N)=O)NC(=O)[C@@H](N)Cc1c[nH]c2ccccc12)C(=O)NCC(=O)N[C@@H](Cc1c[nH]cn1)C(=O)N[C@@H](CO)C(=O)O` had a Relative activity of 1.

On to `CSCC[C@@H](NC(=O)[C@H](CCC(N)=O)NC(=O)[C@@H](N)Cc1c[nH]c2ccccc12)C(=O)NCC(=O)N[C@H](Cc1c[nH]cn1)C(=O)N[C@@H](CO)C(=O)O`, for which the Relative activity is 1.31.

With `CSCC[C@H](NC(=O)[C@@H](CCC(N)=O)NC(=O)[C@H](N)Cc1c[nH]c2ccccc12)C(=O)NCC(=O)N[C@@H](Cc1c[nH]cn1)C(=O)N[C@@H](CO)C(=O)O`, the Relative activity worked out at 0.6.

For the compound `CSCC[C@H](NC(=O)[C@@H](CCC(N)=O)NC(=O)[C@H](N)Cc1c[nH]c2ccccc12)C(=O)NCC(=O)N[C@@H](Cc1c[nH]cn1)C(=O)N[C@H](CO)C(=O)O`, the Relative activity was 0.88.

Consider `CSCC[C@@H](NC(=O)[C@@H](CCC(N)=O)NC(=O)[C@@H](N)Cc1c[nH]c2ccccc12)C(=O)NCC(=O)N[C@@H](Cc1c[nH]cn1)C(=O)N[C@H](CO)C(=O)O`, for which the Relative activity was determined as 0.81.

In turn, `CSCC[C@H](NC(=O)[C@H](CCC(N)=O)NC(=O)[C@H](N)Cc1c[nH]c2ccccc12)C(=O)NCC(=O)N[C@@H](Cc1c[nH]cn1)C(=O)N[C@H](CO)C(=O)O` had a Relative activity of 0.83.

Compound `CSCC[C@@H](NC(=O)[C@H](CCC(N)=O)NC(=O)[C@@H](N)Cc1c[nH]c2ccccc12)C(=O)NCC(=O)N[C@@H](Cc1c[nH]cn1)C(=O)N[C@H](CO)C(=O)O` came in with a Relative activity of 1.17.

`CSCC[C@H](NC(=O)[C@@H](CCC(N)=O)NC(=O)[C@@H](N)Cc1c[nH]c2ccccc12)C(=O)NCC(=O)N[C@@H](Cc1c[nH]cn1)C(=O)N[C@@H](CO)C(=O)O` yielded a Relative activity of 0.82.

The compound `CSCC[C@@H](NC(=O)[C@H](CCC(N)=O)NC(=O)[C@H](N)Cc1c[nH]c2ccccc12)C(=O)NCC(=O)N[C@@H](Cc1c[nH]cn1)C(=O)N[C@H](CO)C(=O)O` returned a Relative activity of 0.89.

With `CSCC[C@H](NC(=O)[C@H](CCC(N)=O)NC(=O)[C@@H](N)Cc1c[nH]c2ccccc12)C(=O)NCC(=O)N[C@H](Cc1c[nH]cn1)C(=O)N[C@@H](CO)C(=O)O`, the Relative activity turned out to be 0.85.

Take `CSCC[C@@H](NC(=O)[C@@H](CCC(N)=O)NC(=O)[C@@H](N)Cc1c[nH]c2ccccc12)C(=O)NCC(=O)N[C@H](Cc1c[nH]cn1)C(=O)N[C@H](CO)C(=O)O`: the Relative activity worked out at 0.36.

As for `CSCC[C@@H](NC(=O)[C@@H](CCC(N)=O)NC(=O)[C@@H](N)Cc1c[nH]c2ccccc12)C(=O)NCC(=O)N[C@@H](Cc1c[nH]cn1)C(=O)N[C@@H](CO)C(=O)O`, the Relative activity was 0.75.

As to `CSCC[C@H](NC(=O)[C@@H](CCC(N)=O)NC(=O)[C@H](N)Cc1c[nH]c2ccccc12)C(=O)NCC(=O)N[C@H](Cc1c[nH]cn1)C(=O)N[C@@H](CO)C(=O)O`, the Relative activity stood at 1.39.

`CSCC[C@@H](NC(=O)[C@H](CCC(N)=O)NC(=O)[C@H](N)Cc1c[nH]c2ccccc12)C(=O)NCC(=O)N[C@@H](Cc1c[nH]cn1)C(=O)N[C@@H](CO)C(=O)O` gave a Relative activity of 0.75.

With `CSCC[C@@H](NC(=O)[C@H](CCC(N)=O)NC(=O)[C@@H](N)Cc1c[nH]c2ccccc12)C(=O)NCC(=O)N[C@H](Cc1c[nH]cn1)C(=O)N[C@H](CO)C(=O)O`, the Relative activity was determined as 0.33.

Compound `CSCC[C@@H](NC(=O)[C@@H](CCC(N)=O)NC(=O)[C@H](N)Cc1c[nH]c2ccccc12)C(=O)NCC(=O)N[C@@H](Cc1c[nH]cn1)C(=O)N[C@H](CO)C(=O)O` yielded a Relative activity of 0.43.

The values above are taken from ChEMBL document CHEMBL1127195, “Screening chemically synthesized peptide libraries for biologically-relevant molecules” (Bioorg Med Chem Lett, 1993).
